From patent publication US20250214942A1, “INHIBITORS OF RECEPTOR INTERACTING PROTEIN KINASE I FOR THE TREATMENT OF DISEASE” (Board of Regents, The University of Texas System, priority 2019, published 2025) come the findings set out here.

Assay [1] has as its system human monocytic cell line U937. In words: Human U937 cellular necroptosis assay (TNFalpha + z-VAD-FMK, Cell Titer-Glo viability). Particulars: Homo sapiens, U-937, 22 h, U937 cells, 25 ng/mL human TNFalpha + 25 μM z-VAD-FMK, read-out: hU937 Avg IC50. The class given is cell-based. Summed up: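 Cells resuspended in phenol red-free RPMI with 10% FBS, stimulated with 25 ng/mL human TNFalpha plus 25 μM z-VAD-FMK, then given serially diluted compound for 22 h at 37° C, 5% CO2. Viability by Cell Titer-Glo 2.0 luminescence; IC50 from four-parameter logistic fit, averaged across runs.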

In the next assay the target is RIPK1 (Homo sapiens (Human), UniProt Q13546). In words: ADP-Glo kinase assay (RIPK1 activity, conversion of ATP to ADP). Particulars: 5 nM RIPK1, 50 μM ATP, 6 h reaction; read-out: RIPK1 Enzyme Avg IC50. The class given is biochemical. Summed up:
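ADP-Glo luminescence of ATP-to-ADP conversion by 5 nM RIPK1 with 50 μM ATP (final), 6 h reaction after 10 min compound preincubation at rt. Buffer was 50 mM HEPES pH 7.5, 30 mM MgCl2, 0.05% BSA, 0.02% CHAPS. IC50 from four-parameter logistic fit.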

Chain of RIPK1 (Q13546 1-327): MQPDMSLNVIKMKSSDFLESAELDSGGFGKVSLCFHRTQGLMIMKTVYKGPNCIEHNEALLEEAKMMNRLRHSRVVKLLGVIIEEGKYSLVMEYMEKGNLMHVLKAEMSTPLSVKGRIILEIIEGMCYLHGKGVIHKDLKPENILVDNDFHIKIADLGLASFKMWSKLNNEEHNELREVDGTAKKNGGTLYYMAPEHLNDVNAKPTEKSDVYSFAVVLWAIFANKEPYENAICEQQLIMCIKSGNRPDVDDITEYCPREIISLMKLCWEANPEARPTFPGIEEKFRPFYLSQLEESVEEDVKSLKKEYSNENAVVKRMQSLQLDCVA

On to `COc1ccnc(OCC23CC(C(=O)N4N=CCC4c4cc(F)cc(F)c4)(C2)C3)n1` (centres unmarked) [Example 327, (5-(3,5-difluorophenyl)-4,5-dihydro-1H-pyrazol-1-yl)(3-(((4-methoxypyrimidin-2-yl)oxy)methyl)bicyclo[1.1.1]-pentan-1-yl)methanone], for which the IC50 was 381 nM in assay [1] and 75 nM at RIPK1.
As to `CN(CC12CC(C(=O)N3N=CCC3c3cc(F)cc(F)c3)(C1)C2)c1cc(C#N)ncn1` (centres unmarked) [Example 162, 6-(((3-(5-(3,5-difluorophenyl)-4,5-dihydro-1H-pyrazole-1-carbonyl)-bicyclo[1.1.1]pentan-1-yl)methyl)(methyl)amino)pyrimidine-4-carbonitrile], the IC50 in assay [1] is 210 nM; on RIPK1, 46 nM.
On the same counts, the results for `O=C(N1N=CCC1c1cc(F)cc(F)c1)C12CC(Cn3ncc4nccnc43)(C1)C2` (centres unmarked) [Example 135, (3-((1H-pyrazolo[3,4-b]-pyrazin-1-yl)methyl)-bicyclo[1.1.1]pentan-1-yl)(5-(3,5-difluorophenyl)-4,5-dihydro-1H-pyrazol-1-yl)methanone] are 53 nM and 18 nM.
On the same counts, the results for `Cc1c2ccccc2nn1CC12CC(C(=O)N3N=CCC3c3cc(F)cc(F)c3)(C1)C2` (centres unmarked) [Example 152, (5-(3,5-difluorophenyl)-4,5-dihydro-1H-pyrazol-1-yl)(3-((3-methyl-2H-indazol-2-yl)-methyl)bicyclo[1.1.1]pentan-1-yl)methanone] are 363 nM and 98 nM.
For `N#Cc1cnc2cn(CC34CC(C(=O)N5N=CCC5c5cc(F)cc(F)c5)(C3)C4)nc2c1` (centres unmarked) [Example 222, 2-((3-(5-(3,5-difluorophenyl)-4,5-dihydro-1H-pyrazole-1-carbonyl)bicyclo[1.1.1]pentan-1-yl)methyl)-2H-pyrazolo[4,3-b]pyridine-6-carbonitrile], in that order: 1100 nM and 220 nM.
On to `N#CC1CCN(CC23CC(C(=O)N4N=CCC4c4cc(F)cc(F)c4)(C2)C3)C1` (centres unmarked) [Example 155, 1-((3-(5-(3,5-difluorophenyl)-4,5-dihydro-1H-pyrazole-1-carbonyl)bicyclo[1.1.1]-pentan-1-yl)methyl)-pyrrolidine-3-carbonitrile], for which the half-maximal inhibitory concentration (IC50) amounted to 5290 nM in assay [1] and 814 nM on RIPK1.
For `NC(=O)c1cnnn1CC12CC(C(=O)N3N=CCC3c3cc(F)cc(F)c3)(C1)C2` (centres unmarked) [Example 55, 1-((3-(5-(3,5-difluorophenyl)-4,5-dihydro-1H-pyrazole-1-carbonyl)-bicyclo[1.1.1]pentan-1-yl)methyl)-1H-1,2,3-triazole-5-carboxamide], in that order: 8930 nM and 896 nM.
On the same counts, the results for `Cc1cnn(CC23CC(C(=O)N4N=CCC4c4cc(F)cc(F)c4)(C2)C3)c1` (centres unmarked) [Example 74, (5-(3,5-difluorophenyl)-4,5-dihydro-1H-pyrazol-1-yl)(3-((4-methyl-1H-pyrazol-1-yl)-methyl)bicyclo[1.1.1]pentan-1-yl)methanone] are 514 nM and 124 nM.
For `O=C(N1N=CCC1c1cc(F)cc(F)c1)C12CC(Cn3cnc4ccccc43)(C1)C2` (centres unmarked) [Example 23, (3-((1H-Benzo[d]imidazol-1-yl)methyl)bicyclo[1.1.1]pentan-1-yl)(5-(3,5-difluorophenyl)-4,5-dihydro-1H-pyrazol-1-yl)methanone], the results for the 50% inhibitory concentration (IC50) (in assay [1]; at RIPK1) were 158 nM and 30 nM, respectively.
For `O=C(N1N=CCC1c1cc(F)cc(F)c1)C12CC(COc3ccccc3Cl)(C1)C2` (centres unmarked) [Example 336, (3-((2-chlorophenoxy)methyl)-bicyclo[1.1.1]pentan-1-yl)(5-(3,5-difluorophenyl)-4,5-dihydro-1H-pyrazol-1-yl)-methanone], in that order: 55 nM and 31 nM.
